As usually defined, the IC50 is the concentration that inhibits the measured activity by half.

These results are taken from patent US20230280220A1, “Benzimidazole Derivative Compounds and Uses Thereof” (Pfizer Inc., priority 2019, published 2023).

ITK enzyme (ITK FL, N-Flag and C-His tagged), sequence (Q08881 whole entry): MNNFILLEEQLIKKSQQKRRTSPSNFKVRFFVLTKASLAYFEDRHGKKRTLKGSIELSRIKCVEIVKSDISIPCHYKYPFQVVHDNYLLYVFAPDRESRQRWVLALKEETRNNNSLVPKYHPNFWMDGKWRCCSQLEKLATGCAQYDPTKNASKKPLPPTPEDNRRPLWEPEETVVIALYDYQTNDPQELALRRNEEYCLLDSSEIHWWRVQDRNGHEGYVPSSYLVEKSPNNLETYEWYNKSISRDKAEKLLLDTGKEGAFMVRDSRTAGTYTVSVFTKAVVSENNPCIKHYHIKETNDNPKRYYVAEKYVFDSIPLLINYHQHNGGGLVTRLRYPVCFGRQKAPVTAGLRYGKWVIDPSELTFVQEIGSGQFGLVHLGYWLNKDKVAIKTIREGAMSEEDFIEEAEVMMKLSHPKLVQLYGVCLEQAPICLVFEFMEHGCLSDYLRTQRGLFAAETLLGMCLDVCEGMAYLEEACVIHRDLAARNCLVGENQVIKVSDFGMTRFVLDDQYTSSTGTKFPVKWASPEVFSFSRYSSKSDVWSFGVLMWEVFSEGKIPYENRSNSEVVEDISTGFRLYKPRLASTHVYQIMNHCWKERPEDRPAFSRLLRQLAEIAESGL

For the experiment, the target named is ITK enzyme (ITK FL, N-Flag and C-His tagged) (Homo sapiens (Human), UniProt Q08881). The experiment in a line: ITK enzyme assay (IL-2-inducible T-cell kinase activity). It is filed as biochemical. The following applies: geometric mean of count n. As for the experimental part:
IL-2-Inducible T-Cell Kinase (ITK) Activity, IC50 (nM)
ITK activity was determined by measuring the effect of a test compound in an ITK enzyme assay.
1.0 M HEPES Buffer pH 7.5 solution was prepared as follows: 238.3 g HEPES free acid (Sigma) and 800 mL of water were combined, and the mixture was stirred until complete dissolution. The pH was adjusted to 7.5 via titration with 5N NaOH and the volume adjusted to 1000 mL. The solution was filtered and sterilized.
ITK assay buffer was prepared as follows: 50 mL of HPLC-grade water was treated with 2 mL of 1.0 M HEPES Buffer, 500 μL of 2% Gelatin (Sigma), 1.0 mL of aqueous MgCl2 solution (1.0 M), and 1.0 mL of aqueous glutathione solution (0.5 M), and the solution was mixed. The solution was brought to 99 mL in a graduated cylinder by addition of water and sterilized through a 0.2 μm filter. 0.1 mL of Brij-35™ Surfact-Amps™ Detergent Solution (10% w/v aqueous solution, ThermoFisher) and 1.0 mL of ATP (Teknova, 100 mM) were added and the solution was mixed.
The resulting solution was stored on ice. 30 Minutes prior to use, the enzyme solution was removed from ice and equilibrated to RT by incubation in a RT water bath.
Preparation of 4×ITK substrate solution was as follows: 50 mL of ITK assay buffer was treated with 100 μL of BTK peptide (China Peptide Company, 2 mM stock solution in DMSO). The tube was capped, mixed by gently inverting the tube, and then stored on ice. 30 Minutes prior to use, the substrate solution was removed from ice and equilibrated to RT by incubation in a RT water bath.
At the time of assay, 7.5 μL of the 1.33×ITK enzyme solution was added to plate wells containing 0.1 μL of varying concentrations of test compound in DMSO. The plate was incubated 30 min at RT. The plate wells were each treated with 2.5 uL of the 4×ITK substrate solution and the plate was sealed (TopSeal™, Perkin Elmer). The plate was spun at 1000 rpm for 30 sec and then incubated for 60 min at RT. The seal was removed, and each well was treated with 10 μL of Stop/Detect Buffer (20 mM HEPES pH 7.5, 0.01% gelatin, 1 nM LANCE PT66 (Perkin Elmer), 16.5 μg/ml Surelight APC (Perkin Elmer), 10 mM EDTA, 250 mM NaCl). The plate was again covered and was spun at 1000 rpm for 30 seconds. The plate was allowed to incubate overnight at RT and in a closed carrier to reduce dehydration. The seal was removed, and the fluorescence was read with a plate reader with an excitation wavelength of […] and an emission wavelength of 615 nm.
The molecule `Cc1cc2[nH]c(-c3n[nH]c4c3C[C@@H]3C[C@]3(C)C4)nc2cc1NC(=O)[C@H](C)N1CCOCC1` [Example 52, (S)—N-(6-methyl-2-((4aS,5aR)-5a-methyl-1,4,4a,5,5a,6-hexahydrocyclopropa[f]indazol-3-yl)-1H-benzo[d]imidazol-5-yl)-2-morpholinopropanamide] had a half-inhibitory concentration (IC50) of 121 nM. The figure for `CN(C(=O)CC1CCOCC1)c1cc2nc(-c3n[nH]c4c3C[C@@H]3C[C@]3(C)C4)[nH]c2cc1C#N` [Example 54, N-(6-cyano-2-((4aS,5aR)-5a-methyl-1,4,4a,5,5a,6-hexahydrocyclopropa[f]indazol-3-yl)-1H-benzo[d]imidazol-5-yl)-N-methyl-2-(tetrahydro-2H-pyran-4-yl)acetamide] is 272 nM. The figure for `C[C@@H](C(=O)N(C)c1cc(C#N)c2[nH]c(-c3n[nH]c4c3C[C@@H]3C[C@]3(C)C4)nc2c1)C1CCOCC1` [Example 55, (R)—N-(7-cyano-2-((4aS,5aR)-5a-methyl-1,4,4a,5,5a,6-hexahydrocyclopropa[f]indazol-3-yl)-1H-benzo[d]imidazol-5-yl)-N-methyl-2-(tetrahydro-2H-pyran-4-yl)propanamide] is 5 nM.
